US7119206B2, “Derivative of dihydro-dibenzo (a) anthracenes and their use as selective estrogen receptor modulators” (Eli Lilly and Company, priority 2002, dated 2006)
pEC50, pIC50, pKi: −log10 of the molar value.

Tests used:
ERAlpha receptor = target: T1, ERAlpha receptor (Homo sapiens, UniProt P03372); assay: ER alpha competition binding assay (3H-Estradiol); conditions: 3H-Estradiol competition; IC50 converted to Ki using Cheng-Prusoff; read-out: ER binding Ki (ERα)
T1 construct: purchased PanVera
T1 sequence (P03372 1-595): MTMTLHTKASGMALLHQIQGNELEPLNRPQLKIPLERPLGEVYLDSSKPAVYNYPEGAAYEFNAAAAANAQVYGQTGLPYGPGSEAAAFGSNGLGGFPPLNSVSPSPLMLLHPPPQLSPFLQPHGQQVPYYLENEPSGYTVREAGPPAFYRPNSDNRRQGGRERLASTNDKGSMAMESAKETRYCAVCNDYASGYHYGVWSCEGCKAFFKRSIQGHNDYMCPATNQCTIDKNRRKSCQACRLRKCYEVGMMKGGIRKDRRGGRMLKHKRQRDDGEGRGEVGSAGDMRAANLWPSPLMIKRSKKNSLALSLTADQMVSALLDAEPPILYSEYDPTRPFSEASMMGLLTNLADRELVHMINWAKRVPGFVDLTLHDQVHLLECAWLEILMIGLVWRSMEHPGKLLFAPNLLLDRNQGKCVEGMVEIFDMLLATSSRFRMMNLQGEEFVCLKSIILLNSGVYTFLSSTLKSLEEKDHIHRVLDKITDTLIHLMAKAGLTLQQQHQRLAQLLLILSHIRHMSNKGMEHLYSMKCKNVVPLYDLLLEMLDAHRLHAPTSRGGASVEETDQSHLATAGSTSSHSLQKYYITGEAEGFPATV
Description: (§1) Competition binding assay is run in a buffer containing 50 mM Hepes, pH 7.5, 1.5 mM EDTA, 150 mM NaCl, 10% glycerol, 1 mg/ml ovalbumin and 5 mM DTT, using 0.025 μCi per well ^3H-Estradiol(NEN #NET517 at 118 Ci/mmol, 1 mCi/ml), 10 ng/well ERAlpha or ERbeta receptor (PanVera). Competing compounds are added at 10 different concentrations. Non-specific binding is determined in the presence of 1 μM of 17-B Estradiol. The binding reaction (140 μl) is incubated for 4 hours at room temperature, then 70 μl of cold DCC buffer is added to each reaction (DCC buffer contains per 50 ml of assay buffer, 0.75 g of charcoal (Sigma) and 0.25 g of dextran (Pharmacia)). Plates are mixed 8 minutes on an orbital shaker at 4° C. Plates are then centrifuged at 3,000 rpm at 4° C. for 10 minutes. An aliquot of 120 μl of the mix is transferred to another 96-well, white flat bottom plate (Costar) and 175 μl of Wallac Optiphase “Hisafe 3” scintillation fluid is added to each well. Plates are sealed and shaken vigorously on an orbital shaker. After an incubation of 2.5 hrs, read plates in a Wallac Microbeta counter. […] The Kd for ^3H-Estradiol is determined by saturation binding to ER alpha and ER beta receptors. The IC50 values for compounds are converted to Ki using Cheng-Prusoff equation and the Kd determined by saturation binding assay.

ERbeta receptor = target: T2, ERbeta receptor (Homo sapiens, UniProt Q92731); assay: ER beta competition binding assay (3H-Estradiol); conditions: 3H-Estradiol competition; IC50 converted to Ki using Cheng-Prusoff; read-out: ER binding Ki (ERβ)
T2 construct: purchased PanVera
Description: as §1

[1] = test system: MCF-7 breast adenocarcinoma cells; assay: MCF-7 proliferation assay (14C-thymidine), antagonist mode; assay type: cell-based; conditions: Homo sapiens, MCF7, antagonist mode, with 10 pM E2
Description: MCF-7 breast adenocarcinoma cells (ATCC HTB 22) are maintained in MEM (minimal essential medium, phenol red-free, Gibco BRL) supplemented with 10% fetal bovine serum (FBS) (V/V), L-glutamine (2 mM), sodium pyruvate (1 mM), HEPES ((N-[2-hydroxyethyl]piperazine-N′-[2-ethanesulfonic acid]10 mM}, non-essential amino acids(0.1 mM)and Penicillin Streptomycin(1×). Seven days prior to assay, MCF-7 cells are switched to assay media which is the same as maintenance medium except supplemented with 10% dextran-coated charcoal-stripped fetal bovine serum (DCC-FBS) assay medium in place of 10% FBS. MCF-7 cells are removed from flasks using 10× Trypsin EDTA (phenol red free, Gibco BRL) and diluted to 1× in (Ca++/Mg++ free HBSS (phenol red-free). Cells are adjusted to 80,000 cells/ml in assay medium. Approximately 8,000 cells (100 μl) are added to each well in 96 well Cytostar T scintillation plates (Amersham) and incubated at 37° C. in a 5% CO2 humidified incubator for 24 hours to allow cell adherence and equilibration after transfer. Serial dilutions of drugs are prepared in assay medium at 4× the final desired concentration). A 50 μl aliquot of drug dilutions (at 4× the final assay concentration) is transferred to duplicate wells followed by 50 μl assay medium for the agonist mode or 50 μl of 40 pM of E2 for the antagonist mode to a final volume of 200 μl. For each of the agonist plates, a basal level (media) and a maximum stimulated level (with 1 μM E2) is determined. For each of the antagonist plates, a basal level (media) and a E2 (10 pM) alone control is determined. After an additional 48 hours at 37° C. in a 5% CO2 humidified incubator, 20 μl of assay medium containing 0.01 μCi of ^14C-thymidine (52 mCi/mmol, […], Amersham) is added to each well. The plates are incubated overnight in the same incubator and then counted on the Wallac Microbeta counter. […] For the agonist mode, an EC50 and percent of maximum E2 stimulation and concentration of maximum stimulation is calculated.

[2] = test system: Ishikawa human endometrial tumor cells; assay: Ishikawa cell assay (PNPP readout), agonist mode; assay type: cell-based; conditions: Homo sapiens, Ishikawa; for Emax: % efficacy versus the response to Tamoxifen, read-out: Ishikawa Agonist % Eff
Source text: (§2) Ishikawa human endometrial tumor cells are maintained in MEM (minimum essential medium, with Earle's salts and L-Glutamine, Gibco BRL, Gaithersburg, Md.), supplemented with 10% fetal bovine serum (FBS) (V/V), (Gibco BRL). One day prior to assay, growth media is changed to assay medium, DMEM/F-12 (3:1) (Dulbecco's Modified Eagle Medium: Nutrient Mixture F-12, 3:1 Mixture, phenol red-free, Gibco BRL) supplemented with 5% dextran coated charcoal stripped fetal bovine serum (DCC-FBS) (Hyclone, Logen, Utah), L-Glutamine (2 mM), MEM sodium pyruvate (1 mM), HEPES (N-[2-hydroxyethyl]piperazine-N′-[2-ethanesulfonic acid] 2 mM) all from Gibco BRL). After an overnight incubation, ishikawa cells are rinsed with Dulbecco's Phosphate Buffered Saline (1×) (D-PBS) without Ca^+2 and Mg^+2 (Gibco BRL), and trypsinized by a 3 minute incubation with 0.25% Trypsin/EDTA, phenol red-free (Gibco BRL). Cells are resuspended in assay medium and adjusted to 250,000 cells/ml. Approximately 25,000 cells in a 100 ul media are added to flat-bottom 96 wells microculture plates (Costar 3596) and incubated at 37° C. in a 5% CO2 humidified incubator for 24 hours. The next day, serial dilutions of compounds are prepared in assay medium (at 6 times the final concentration in the assay). The assay is run in dual mode, agonist and antagonist modes. For the agonist mode, plates receive 25 μl/well of assay medium followed by 25 μl/well of diluted compounds (at 6× the final concentrations). For the antagonist mode, plates receive 25 μl/well of 6 nM E2 (β-Estradiol, Sigma, St. Louis, Mo.) followed by 25 μl/well of diluted compounds (at 6× the final concentrations). After an additional 48-hour incubation at 37° C. in a 5% CO2 humidified incubator, media is aspirated from wells and 100 μl fresh assay medium is added to each microculture. Serial dilutions of compounds are prepared and added to the cells as described above. After an additional 72 hour incubation at 37° C. in a 5% CO2 humidified incubator, the assay is quenched by removing media and rinsing plates twice in Dulbecco's Phosphate Buffered Saline (1×) (D-PBS) (Gibco BRL). The plates are dried for 5 min and frozen at −70° C. for at least 1 hour. The plates are then removed from the freezer and allowed to thaw at room temperature. To each well, 100 μl of 1-Step™ PNPP (Pierce Chemical Company, Rockford, Ill.) is added. After a 20-minute incubation, plates are read on a spectophotometer at 405 nm. The data is fitted to a linear interpolation to derive EC50 (for agonist mode) or IC50 (for antagonist mode) values. For the agonist mode, a % efficacy for each compound is calculated versus the response to Tamoxifen. For the antagonist mode, a % efficacy for each compound is calculated versus E2 (1 nM) alone.

[3] = test system: Ishikawa human endometrial tumor cells; assay: Ishikawa cell assay (PNPP readout), antagonist mode; assay type: cell-based; conditions: with 1 nM E2
Source text: as §2

T2 sequence (Q92731 whole entry): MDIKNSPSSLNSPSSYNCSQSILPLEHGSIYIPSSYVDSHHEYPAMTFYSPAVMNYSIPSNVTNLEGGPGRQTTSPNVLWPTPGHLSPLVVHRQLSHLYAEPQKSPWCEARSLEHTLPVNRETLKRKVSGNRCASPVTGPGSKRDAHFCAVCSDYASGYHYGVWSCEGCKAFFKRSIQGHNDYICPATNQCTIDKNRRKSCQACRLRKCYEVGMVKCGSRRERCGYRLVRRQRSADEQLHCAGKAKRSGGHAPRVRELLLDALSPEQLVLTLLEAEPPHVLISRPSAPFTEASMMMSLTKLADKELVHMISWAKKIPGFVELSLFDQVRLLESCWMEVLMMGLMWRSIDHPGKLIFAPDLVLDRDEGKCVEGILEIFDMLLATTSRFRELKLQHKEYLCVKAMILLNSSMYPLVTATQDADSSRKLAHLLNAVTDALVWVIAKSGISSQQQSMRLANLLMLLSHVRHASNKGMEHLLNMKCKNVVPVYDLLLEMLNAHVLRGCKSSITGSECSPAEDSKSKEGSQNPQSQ

| SMILES | pKi (ERAlpha receptor) | pKi (ERbeta receptor) | pIC50 [1] | pEC50 [2] | Emax [2] [%] | pIC50 [3] |
| --- | --- | --- | --- | --- | --- | --- |
| Oc1ccc2c3c(ccc2c1)Cc1cccc(O)c1C3c1ccc(OCCN2CCCCC2)cc1 (stereo not drawn) [Example 12, 12-[4-(2-Piperidin-1-yl-ethoxy)-phenyl]-7,12-dihydro-benzo[a]anthracene-3,11-diol] | 8.10 | 7.40 | 7.17 | 7.55 | 77 | 6.24 |
| Oc1ccc2c3c(ccc2c1)Cc1ccc(F)cc1C3c1ccc(OCCN2CCCCC2)cc1 (racemic) [Example 5, 10-Fluoro-12-[4-(2-piperidin-1-yl-ethoxy)-phenyl]-7,12-dihydro-benzo[a]anthracen-3-ol] | 8.52 | 7.51 | 7.04 | 7.96 | 79 | 6.21 |
| Oc1ccc2c(c1)C(c1ccc(OCCN3CCCCC3)cc1)c1c(ccc3cc(O)ccc13)C2 (stereo not drawn) [Example 8, 12-[4-(2-Piperidin-1-yl-ethoxy)-phenyl]-7,12-dihydro-benzo[a]anthracene-3,10-diol] | 9.00 | 8.52 | 8.15 | 8.52 | 75 | 6.89 |
